# Key:
# [1] = Percent of parent tracer remaining in monkey plasma (plasma half-life comparison, TLC/gamma counting); type: in vivo, rhesus monkey; conditions: for % parent tracer remaining in monkey plasma / Amount of tracer remaining in plasma relative to the protonated tracer: rhesus monkey; for Amount of tracer remaining in plasma relative to the protonated tracer: versus Compound A
# Description: To compare the plasma half-life of [^18F][2-fluoromethoxy-5-(5-trifluoromethyl-tetrazol-1-yl)-benzyl]-([2S,3S]-2-phenyl-piperidin-3-yl)-amine (Compound A) and [^18F][2-fluorodideuteromethoxy-5-(5-trifluoromethyl-tetrazol-1-yl)-benzyl]-([2S,3S]-2-phenyl-piperidin-3-yl)-amine (Compound B) in rhesus monkey, ˜5 mCi of each radiotracer (in saline) was injected by iv into an anesthetized monkey. At various time points, whole blood was drawn, mixed with 0.02 mL of acetonitrile and centrifuged for 3-5 minutes at 5000 rpm. A 0.02 mL aliquot of the acetonitrile extract was spotted on a 5×7 cm TLC plate along with the cold standard and developed using 60:40:0.1 ethyl acetate:methanol:triethylamine. The TLC plate was cut into four sections pertaining to the origin, to determine the amount of fluoride present, the section between the origin and where the standard eluted, to determine polar metabolites, the section where the parent compound eluted, to determine the amount of parent compound remaining, and the area between the parent compound and the solvent front for nonpolar metabolites. The TLC strips were then counted in a gamma counter to determine the number of counts for each section of TLC plate. The percentage of the total counts that were due to the remaining parent compound was determined. […] With the higher prolonged plasma levels of the deuterated tracer, more time is available for a larger specific signal to develop, and for the tracer to accumulate in brain regions that have a low receptor concentration and could be difficult to image using the protonated tracer.
# [2] = biological target: T1, NK1 receptor (Macaca mulatta, UniProt F7GQV6); test: Chase study with an unlabelled NK1 antagonist, PET regions of interest (chaseability); type: in vivo, rhesus monkey; conditions: for Remaining Specific Binding in Rhesus Monkey after 1 mpk Chase at 180 Minutes with an NK1 Antagonist: striatum minus cerebellum
# T1 construct: from tissue; host or cells: brain (striatum and other regions) of a living rhesus monkey, PET imaging
# Description: A bolus of an unlabelled NK1 antagonist was administered 180 minutes after a bolus injection of either tracer. From the resulting images, regions of interest were drawn to determine the amount of radioactivity present in different brain regions. […] Also, using the 70% level of chase as a comparison (30% remaining specific binding), the fluoroethoxy compound reaches this level ˜50 minutes before the dideuterofluoromethoxy analog reaches this same level. Because the fluoroethoxy compound [^18F][2-fluoroethoxy-5-(5-trifluoromethyl-tetrazol-1-yl)-benzyl]-([2S,3S]-2-phenyl-piperidin-3-yl)-amine chases from the striatum faster than the fluoromethoxy analog, a more accurate picture of what the true receptor occupancy is can be obtained using the fluoroethoxy analog.
# [3] = Brain levels of the tracer; type: in vivo; conditions: comparison in words
# [4] = 5 minutes after iv injection of ~5 mCi
# [5] = 15 minutes after iv injection of ~5 mCi
# [6] = 30 minutes after iv injection of ~5 mCi
# [7] = 45 minutes after iv injection of ~5 mCi
# [8] = 60 minutes after iv injection of ~5 mCi
# [9] = 120 minutes after iv injection of ~5 mCi
# [10] = 180 minutes after iv injection of ~5 mCi
# T1 sequence (F7GQV6 1-407): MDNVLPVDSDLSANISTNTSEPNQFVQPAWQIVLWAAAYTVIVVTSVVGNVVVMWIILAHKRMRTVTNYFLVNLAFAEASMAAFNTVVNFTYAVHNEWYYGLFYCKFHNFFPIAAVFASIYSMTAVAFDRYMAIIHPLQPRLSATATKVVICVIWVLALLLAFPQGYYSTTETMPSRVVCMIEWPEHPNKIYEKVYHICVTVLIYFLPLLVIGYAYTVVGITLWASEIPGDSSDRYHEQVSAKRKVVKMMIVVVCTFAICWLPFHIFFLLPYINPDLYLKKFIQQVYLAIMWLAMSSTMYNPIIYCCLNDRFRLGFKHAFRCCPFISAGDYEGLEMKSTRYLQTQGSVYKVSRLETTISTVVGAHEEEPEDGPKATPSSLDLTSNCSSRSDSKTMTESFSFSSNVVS
compound,measurement,setting,value
"FC(F)(F)c1nnnn1-c1ccc(OC[18F])c(CN[C@H]2CCCN[C@H]2c2ccccc2)c1 [Compound A, [^18F][2-fluoromethoxy-5-(5-trifluoromethyl-tetrazol-1-yl)-benzyl]-([2S,3S]-2-phenyl-piperidin-3-yl)-amine, reference compound]",% parent tracer remaining in monkey plasma,[1]; [4],72%
same,% parent tracer remaining in monkey plasma,[1]; [5],55%
same,% parent tracer remaining in monkey plasma,[1]; [6],38%
same,% parent tracer remaining in monkey plasma,[1]; [7],35%
same,% parent tracer remaining in monkey plasma,[1]; [8],25%
same,% parent tracer remaining in monkey plasma,[1]; [9],16%
same,% parent tracer remaining in monkey plasma,[1]; [10],9%
"[2H]C([2H])([18F])Oc1ccc(-n2nnnc2C(F)(F)F)cc1CN[C@H]1CCCN[C@H]1c1ccccc1 [Compound B, [^18F][2-fluorodideuteromethoxy-5-(5-trifluoromethyl-tetrazol-1-yl)-benzyl]-([2S,3S]-2-phenyl-piperidin-3-yl)-amine]",% parent tracer remaining in monkey plasma,[1]; [4],91%
same,% parent tracer remaining in monkey plasma,[1]; [5],87%
same,% parent tracer remaining in monkey plasma,[1]; [6],75%
same,% parent tracer remaining in monkey plasma,[1]; [7],39%
same,% parent tracer remaining in monkey plasma,[1]; [8],41%
same,% parent tracer remaining in monkey plasma,[1]; [9],23%
same,% parent tracer remaining in monkey plasma,[1]; [10],20%
same,Amount of tracer remaining in plasma relative to the protonated tracer,[1]; all time points examined,more of the deuterated tracer remaining in the plasma than the protonated tracer
same,"Metabolic stability relative to the [18F]fluoromethoxy compound of U.S. Pat. No. 6,241,964",[1]; comparison in words,metabolically more stable
same,"Plasma half-life relative to the [18F]fluoromethoxy compound of U.S. Pat. No. 6,241,964",[1]; comparison in words,longer plasma half-life
same,Amount of tracer remaining in plasma relative to the protonated tracer,[1]; end of the experiment (3 hours),twice as much
same,Remaining Specific Binding in Rhesus Monkey after 1 mpk Chase at 180 Minutes with an NK1 Antagonist,[2]; 195 minutes after tracer,~96%
same,Remaining Specific Binding in Rhesus Monkey after 1 mpk Chase at 180 Minutes with an NK1 Antagonist,[2]; 205 minutes after tracer,~85%
same,Remaining Specific Binding in Rhesus Monkey after 1 mpk Chase at 180 Minutes with an NK1 Antagonist,[2]; 230 minutes after tracer,~55%
same,Remaining Specific Binding in Rhesus Monkey after 1 mpk Chase at 180 Minutes with an NK1 Antagonist,[2]; 270 minutes after tracer,~30%
same,Time at which tracer begins to chase (is displaced from the receptor) after administration of the unlabelled antagonist,"[2]; striatum, rhesus monkey",about 30 minutes
same,Brain levels of the tracer relative to the [18F]fluoromethoxy compound,[3],relatively higher brain levels
"FC(F)(F)c1nnnn1-c1ccc(OCC[18F])c(CN[C@H]2CCCN[C@H]2c2ccccc2)c1 [Compound C, [^18F][2-fluoroethoxy-5-(5-trifluoromethyl-tetrazol-1-yl)-benzyl]-([2S,3S]-2-phenyl-piperidin-3-yl)-amine]",Remaining Specific Binding in Rhesus Monkey after 1 mpk Chase at 180 Minutes with an NK1 Antagonist,[2]; 195 minutes after tracer,~85%
same,Remaining Specific Binding in Rhesus Monkey after 1 mpk Chase at 180 Minutes with an NK1 Antagonist,[2]; 205 minutes after tracer,~55%
same,Remaining Specific Binding in Rhesus Monkey after 1 mpk Chase at 180 Minutes with an NK1 Antagonist,[2]; 220 minutes after tracer,~30%
same,Time at which tracer begins to chase (is displaced from the receptor) after administration of the unlabelled antagonist,"[2]; striatum, rhesus monkey",almost immediately
same,Time by which the 70% level of chase (30% remaining specific binding) is reached before the dideuterofluoromethoxy analog,"[2]; striatum, rhesus monkey, versus Compound B",~50 minutes
"[^18F][2-fluoroethoxy-5-(5-trifluoromethyl-tetrazol-1-yl)-benzyl]-([2S,3S]-2-phenyl-piperidin-3-yl)-amine [Compound C]","Displacement from the NK1 receptor when unlabelled compounds are administered, relative to the [18F]fluoromethoxy compound",[2]; comparison in words,faster
